Target: T1, Or22a/Orco (Drosophila melanogaster, UniProt P81909)
T1 construct: his-tag; made in house; host or cells: baculovirus-infected Sf9 cells
T1 sequence (P81909 1-397): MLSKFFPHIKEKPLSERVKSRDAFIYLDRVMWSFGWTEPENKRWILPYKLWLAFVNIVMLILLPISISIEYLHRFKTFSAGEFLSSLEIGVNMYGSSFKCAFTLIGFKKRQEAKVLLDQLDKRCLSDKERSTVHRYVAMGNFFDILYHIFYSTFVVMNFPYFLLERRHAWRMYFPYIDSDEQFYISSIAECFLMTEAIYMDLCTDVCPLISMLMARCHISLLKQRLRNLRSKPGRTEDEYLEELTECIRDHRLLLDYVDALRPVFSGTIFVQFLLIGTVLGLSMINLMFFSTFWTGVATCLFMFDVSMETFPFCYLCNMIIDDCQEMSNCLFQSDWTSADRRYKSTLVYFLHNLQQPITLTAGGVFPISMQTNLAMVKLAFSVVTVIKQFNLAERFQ
T1 sequence (Q9VNB5 1-486 partner): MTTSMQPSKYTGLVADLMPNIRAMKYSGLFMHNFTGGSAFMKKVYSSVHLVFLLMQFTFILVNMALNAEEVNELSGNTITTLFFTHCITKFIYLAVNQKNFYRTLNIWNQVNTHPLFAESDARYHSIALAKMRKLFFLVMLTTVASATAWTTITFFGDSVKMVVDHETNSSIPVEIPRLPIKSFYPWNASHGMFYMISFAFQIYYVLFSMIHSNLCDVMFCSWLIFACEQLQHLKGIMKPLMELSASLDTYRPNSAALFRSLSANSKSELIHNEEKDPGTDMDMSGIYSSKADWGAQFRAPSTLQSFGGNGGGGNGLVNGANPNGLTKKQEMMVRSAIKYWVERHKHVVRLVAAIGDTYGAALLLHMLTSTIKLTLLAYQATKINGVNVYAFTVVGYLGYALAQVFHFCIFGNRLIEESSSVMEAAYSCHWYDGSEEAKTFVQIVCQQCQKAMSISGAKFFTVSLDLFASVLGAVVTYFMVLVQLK
Test: Droplet interface bilayer ion channel recording, Or22a/Orco
Assay type: biochemical
Details: DIB, 10 μM ligand, at +/−100 mV, +/−50 mV and −25 mV
Description: Bilayers were formed between two droplets formed within a PMMA chamber filled with 1 mg/ml DPhPC in undecane and AR20 silicone oil (1:1 ratio). The first step in this process was to deposit a 50 nl droplet onto the stationary silver electrode positioned at the base of the well; this droplet consisted of an aqueous solution containing 300 mM NaCl, 10 mM HEPES (pH 7.4), containing the odorant receptor proteins in proteoliposomes (at a 1:20 dilution from the proteoliposome preparation), […] The second droplet was mounted onto a second silver electrode which was held in the oil and lipid mixture using a YOU-3 manipulator (Narishige, Japan). […] Once the droplets were in contact a bilayer formed spontaneously within 1 minute (as determined by visual assessment and an increase in the bilayer capacitance as measured with a capacitance voltage protocol using the Pico2 amplifier). Insertion of an active channel was determined by a change in current while clamping the voltage at 50 mV. […]
Currents were recorded with a Pico2 or an eONE-HS amplifier (Tecella, USA and Elements, Italy, respectively) with built-in digitizers, operating in gap-free acquisition mode at a sampling frequency of 20 kHz, and using a 0.8 or 1.5 kHz low pass filter. […]
Data were analysed using ANA (Dr Pusch, Genoa), EDR (Elements, Italy) and WinWCP (Dr Dempster, University of Strathclyde). […]

CCCCCC(=O)OC [methyl hexanoate]
ion channel activity: ion channel activity is observed

— patent US20210255184A1, “Biosensor Device and Methods” (The New Zealand Institute for Plant and Food Research …, priority 2018, published 2021)
